In patent publication US20250382269A1 (CFD Research Corporation, priority 2019, published 2025):
Values after ≈ are worked out from the molar mass of the structure shown. Values joined by “and” are separate entries in the source; they are usually repeats but may differ in a detail not shown here. Equal entries are not always repeated. Where two headings read alike, the source gives them in different places.

Assays:
[1] = tested on: B. subtilis / cytotoxicity EC50; assay: Selectivity index (SI) using B. subtilis MICs
Procedure: Additionally, the antimicrobial compounds were analyzed for cytotoxicity. […] We utilized the standard MTT assay (Promega CellTiter 96) and GraphPad Prism 7 software to determine EC50 values for each analogue. Briefly, 20,000 HepG2 cells in 200 μl of the ATCC recommended media were seeded in each well of a 96-well plate with a moisture barrier created in the outermost wells. The cells were allowed to attach overnight at 37° C., and then observed under phase contrast microscopy for proper morphological characteristics. If cells appeared healthy and attached, test compounds were added in 7 concentrations from […] (n=3) from freshly prepared DMSO stock plates. […] Once incubations were complete, the spectrophotometric absorbance of the samples was measured at a wavelength of 595 nm. […] For the HepaRG assay, NoSpin HepaRG™ cells (Lonza, cat #NSHPRG) were thawed and plated with 20,000 cells per well. They were allowed to attach for 4 h (optimal DME profile per Lonza's testing) before dosing following the identical protocol as above.

[2] = Toxicity study in mice, body weight over 7 days; assay type: in vivo, Balb/c mice; settings: for toxicity in mice (body weight over 7 days): 6-week-old Balb/c mice, vehicle 40% PEG300 in 0.9% NaCl
From the text: The vehicle is 40% PEG300 solution in 0.9% NaCl. […] Thus, the compounds are useful for in vivo antimicrobial administration.

Neisseria gonorrhoeae = assay: microbe, parasite or virus in culture; assay type: cell-based
[3] = IP 0.1 mg/kg, Day 0, individual animals, 0.1 mg/kg
[4] = IP 0.1 mg/kg, Day 1, individual animals, 0.1 mg/kg
[5] = IP 0.1 mg/kg, Day 2, individual animals, 0.1 mg/kg
[6] = IP 0.1 mg/kg, Day 3, individual animals, 0.1 mg/kg
[7] = IP 0.1 mg/kg, Day 4, individual animals, 0.1 mg/kg
[8] = IP 0.1 mg/kg, Day 5, individual animals, 0.1 mg/kg
[9] = IP 0.1 mg/kg, Day 6, individual animals, 0.1 mg/kg
[10] = IP 0.1 mg/kg, Day 7, individual animals, 0.1 mg/kg
[11] = IP 1 mg/kg, Day 0, individual animals, 1 mg/kg
[12] = IP 1 mg/kg, Day 1, individual animals, 1 mg/kg
[13] = IP 1 mg/kg, Day 2, individual animals, 1 mg/kg
[14] = IP 1 mg/kg, Day 3, individual animals, 1 mg/kg
[15] = IP 1 mg/kg, Day 4, individual animals, 1 mg/kg
[16] = IP 1 mg/kg, Day 5, individual animals, 1 mg/kg
[17] = IP 1 mg/kg, Day 6, individual animals, 1 mg/kg
[18] = IP 1 mg/kg, Day 7, individual animals, 1 mg/kg
[19] = IP 10 mg/kg, Day 0, individual animals, 10 mg/kg
[20] = IP 10 mg/kg, Day 1, individual animals, 10 mg/kg
[21] = IP 10 mg/kg, Day 2, individual animals, 10 mg/kg
[22] = IP 10 mg/kg, Day 3, individual animals, 10 mg/kg
[23] = IP 10 mg/kg, Day 4, individual animals, 10 mg/kg
[24] = IP 10 mg/kg, Day 5, individual animals, 10 mg/kg
[25] = IP 10 mg/kg, Day 6, individual animals, 10 mg/kg
[26] = IP 10 mg/kg, Day 7, individual animals, 10 mg/kg
[27] = ATCC49226, read-out: Neisseria gonorrhoeae ATCC 49226 MIC, strain ATCC 49226
[28] = read-out: Neisseria gonorrhoeae WHO 901 MIC, strain WHO 901
[29] = read-out: Neisseria gonorrhoeae WHO 914 MIC, strain WHO 914

SMILES: Fc1ccc(Sc2c[nH]c3ccc(Br)cc23)cc1 [Compound 174P, 5-bromo-3-((4-fluorophenyl)thio)-1H-indole]
- SI (selectivity index) [1]: 24.6

SMILES: Oc1ccccc1Sc1c[nH]c2ccc(Br)cc12 [Compound 174AI, 2-((5-bromo-1H-indol-3-yl)thio)phenol]
- toxicity in mice (body weight over 7 days) [2]: did not have significant toxicity
- Animal body weight [2, 3]: 0.023 kg (2×) and 0.022 kg
- Animal body weight [2, 4]: 0.022 kg (2×) and 0.021 kg
- Animal body weight [2, 5]: 0.023 kg and 0.022 kg and 0.021 kg
- Animal body weight [2, 6]: 0.024 kg and 0.022 kg (2×)
- Animal body weight [2, 7]: 0.024 kg and 0.022 kg (2×)
- Animal body weight [2, 8]: 0.024 kg and 0.022 kg (2×)
- Animal body weight [2, 9]: 0.024 kg and 0.022 kg (2×)
- Animal body weight [2, 10]: 0.023 kg (2×) and 0.022 kg
- Animal body weight [2, 11]: 0.022 kg and 0.024 kg and 0.026 kg
- Animal body weight [2, 12]: 0.023 kg and 0.024 kg and 0.026 kg
- Animal body weight [2, 13]: 0.023 kg and 0.025 kg and 0.026 kg
- Animal body weight [2, 14]: 0.023 kg and 0.025 kg and 0.027 kg
- Animal body weight [2, 15]: 0.022 kg and 0.025 kg and 0.026 kg
- Animal body weight [2, 16]: 0.022 kg and 0.025 kg and 0.026 kg
- Animal body weight [2, 17]: 0.022 kg and 0.024 kg and 0.026 kg
- Animal body weight [2, 18]: 0.022 kg and 0.024 kg and 0.026 kg
- Animal body weight [2, 19]: 0.022 kg and 0.026 kg and 0.024 kg
- Animal body weight [2, 20]: 0.021 kg and 0.024 kg and 0.022 kg
- Animal body weight [2, 21]: 0.022 kg and 0.024 kg and 0.023 kg
- Animal body weight [2, 22]: 0.022 kg and 0.025 kg and 0.023 kg
- Animal body weight [2, 23]: 0.022 kg and 0.026 kg and 0.024 kg
- Animal body weight [2, 24]: 0.023 kg and 0.026 kg and 0.024 kg
- Animal body weight [2, 25]: 0.022 kg and 0.026 kg and 0.024 kg
- Animal body weight [2, 26]: 0.022 kg and 0.026 kg and 0.023 kg

SMILES: Fc1ccc2[nH]cc(Cc3ccc(Br)cc3)c2c1 [3-(4 bromobenzyl)-5-fluoro-1H-indole]
- MIC (Neisseria gonorrhoeae; [27]): 4 µg/mL (≈ 13.2 µM)

SMILES: Cc1cccc(Cc2c[nH]c3ccc(F)cc23)c1
- MIC (Neisseria gonorrhoeae; [27]): 8 µg/mL (≈ 33.4 µM)
- MIC (Neisseria gonorrhoeae; [28]): 8 µg/mL (≈ 33.4 µM)
- MIC (Neisseria gonorrhoeae; [29]): > 8 µg/mL

SMILES: Brc1ccc(Oc2c[nH]c3ccc(Br)cc23)cc1 [5-bromo-3-(4-bromophenoxy)-1H-indole]
- MIC (Neisseria gonorrhoeae; [27]): 4 µg/mL (≈ 10.9 µM)
- MIC (Neisseria gonorrhoeae; [28]): 2 µg/mL (≈ 5.45 µM)
- MIC (Neisseria gonorrhoeae; [29]): 4 µg/mL (≈ 10.9 µM)

SMILES: Clc1ccc(Sc2c[nH]c3ccc(Br)cc23)c(Cl)c1 [Compound 174V, 5-bromo-3-((2,4-dichlorophenyl)thio)-1H-indole]
- SI (selectivity index) [1]: 19.8

SMILES: Fc1ccccc1Sc1c[nH]c2ccc(Br)cc12 [Compound 174AU, 5-bromo-3-((2-fluorophenyl)thio)-1H-indole]
- toxicity in mice (body weight over 7 days) [2]: did not have significant toxicity
- Animal body weight [2, 3]: 0.026 kg and 0.023 kg and 0.024 kg
- Animal body weight [2, 4]: 0.024 kg and 0.022 kg and 0.023 kg
- Animal body weight [2, 5]: 0.025 kg and 0.022 kg and 0.023 kg
- Animal body weight [2, 6]: 0.025 kg and 0.022 kg and 0.023 kg
- Animal body weight [2, 7]: 0.025 kg and 0.022 kg and 0.023 kg
- Animal body weight [2, 8]: 0.025 kg and 0.023 kg and 0.024 kg
- Animal body weight [2, 9]: 0.025 kg and 0.022 kg and 0.023 kg
- Animal body weight [2, 10]: 0.024 kg and 0.022 kg and 0.023 kg
- Animal body weight [2, 11]: 0.026 kg and 0.022 kg and 0.025 kg
- Animal body weight [2, 12]: 0.025 kg (2×) and 0.022 kg
- Animal body weight [2, 13]: 0.026 kg and 0.022 kg and 0.025 kg
- Animal body weight [2, 14]: 0.026 kg and 0.022 kg and 0.025 kg
- Animal body weight [2, 15]: 0.026 kg and 0.023 kg and 0.025 kg
- Animal body weight [2, 16]: 0.026 kg and 0.023 kg and 0.025 kg
- Animal body weight [2, 17]: 0.025 kg (2×) and 0.023 kg
- Animal body weight [2, 18]: 0.026 kg and 0.024 kg and 0.025 kg
- Animal body weight [2, 19]: 0.024 kg (2×) and 0.025 kg
- Animal body weight [2, 20]: 0.023 kg (2×) and 0.024 kg
- Animal body weight [2, 21]: 0.023 kg (2×) and 0.025 kg
- Animal body weight [2, 22]: 0.024 kg and 0.023 kg and 0.025 kg
- Animal body weight [2, 23]: 0.023 kg (2×) and 0.025 kg
- Animal body weight [2, 24]: 0.023 kg (2×) and 0.026 kg
- Animal body weight [2, 25]: 0.022 kg and 0.023 kg and 0.026 kg
- Animal body weight [2, 26]: 0.022 kg and 0.023 kg and 0.026 kg

SMILES: Fc1ccc2[nH]cc(Cc3ccccc3F)c2c1
- MIC (Neisseria gonorrhoeae; [27]): 8 µg/mL (≈ 32.9 µM)
- MIC (Neisseria gonorrhoeae; [28]): 8 µg/mL (≈ 32.9 µM)
- MIC (Neisseria gonorrhoeae; [29]): > 8 µg/mL

SMILES: c1ccc(Oc2c[nH]c3ccccc23)cc1 [3-phenoxy-1H-indole]
- MIC (Neisseria gonorrhoeae; [27]): > 8 µg/mL
- MIC (Neisseria gonorrhoeae; [28]): > 8 µg/mL
- MIC (Neisseria gonorrhoeae; [29]): > 8 µg/mL

SMILES: Cc1[nH]c2ccc(Br)cc2c1Sc1ccccc1Br [Compound 174AZ, 5-bromo-3-((2-bromophenyl)thio)-2-methyl-1H-indole]
- toxicity in mice (body weight over 7 days) [2]: did not have significant toxicity
- Animal body weight [2, 3]: 0.023 kg (2×) and 0.025 kg
- Animal body weight [2, 4]: 0.022 kg and 0.024 kg and 0.023 kg
- Animal body weight [2, 5]: 0.022 kg and 0.025 kg and 0.023 kg
- Animal body weight [2, 6]: 0.022 kg and 0.025 kg and 0.023 kg
- Animal body weight [2, 7]: 0.023 kg (2×) and 0.025 kg
- Animal body weight [2, 8]: 0.022 kg and 0.025 kg and 0.023 kg
- Animal body weight [2, 9]: 0.022 kg and 0.025 kg and 0.023 kg
- Animal body weight [2, 10]: 0.022 kg (2×) and 0.025 kg
- Animal body weight [2, 11]: 0.024 kg (2×) and 0.025 kg
- Animal body weight [2, 12]: 0.023 kg and 0.024 kg (2×)
- Animal body weight ([2]; IP 1 mg/kg, Day 2, individual animals): 0.024 kg
- Animal body weight [2, 14]: 0.025 kg and 0.024 kg (2×)
- Animal body weight [2, 15]: 0.025 kg (2×) and 0.024 kg
- Animal body weight [2, 16]: 0.025 kg and 0.023 kg and 0.024 kg
- Animal body weight [2, 17]: 0.025 kg and 0.024 kg (2×)
- Animal body weight [2, 18]: 0.025 kg and 0.023 kg and 0.024 kg
- Animal body weight [2, 19]: 0.023 kg (2×) and 0.024 kg
- Animal body weight [2, 20]: 0.022 kg (2×) and 0.023 kg
- Animal body weight [2, 21]: 0.022 kg and 0.023 kg (2×)
- Animal body weight [2, 22]: 0.022 kg (2×) and 0.023 kg
- Animal body weight ([2]; IP 10 mg/kg, Day 4, individual animals): 0.023 kg
- Animal body weight ([2]; IP 10 mg/kg, Day 5, individual animals): 0.023 kg
- Animal body weight [2, 25]: 0.022 kg (2×) and 0.023 kg
- Animal body weight [2, 26]: 0.023 kg (2×) and 0.022 kg
